Test results as given in PubChem BioAssay (NCI).
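Results reflect a 48-hour exposure of cells in 96-well plates to compound at five concentrations. GI50 marks 50% less growth. TGI: concentration producing complete growth inhibition.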

How the values were obtained:
Experiment in all cases: growth of human tumour cells (NCI), 48 h
[1] = test system: 786-0 renal
[2] = test system: A498 renal
[3] = test system: A549 NSCLC
[4] = test system: ACHN renal
[5] = test system: BT-549 breast
[6] = test system: CAKI-1 renal
[7] = test system: CCRF-CEM leukemia
[8] = test system: COLO 205 colon
[9] = test system: DU-145 prostate
[10] = test system: EKVX NSCLC
[11] = test system: HCC-2998 colon
[12] = test system: HCT-116 colon
[13] = test system: HCT-15 colon
[14] = test system: HL-60(TB) leukemia
[15] = test system: HOP-62 NSCLC
[16] = test system: HOP-92 NSCLC
[17] = test system: HS 578T breast
[18] = test system: HT29 colon
[19] = test system: IGROV1 ovarian
[20] = test system: K-562 leukemia
[21] = test system: KM12 colon
[22] = test system: LOX IMVI melanoma
[23] = test system: M14 melanoma
[24] = test system: MALME-3M melanoma
[25] = test system: MCF7 breast
[26] = test system: MDA-MB-231 breast
[27] = test system: MDA-MB-435
[28] = test system: MDA-MB-468 breast
[29] = test system: MOLT-4 leukemia
[30] = test system: NCI-H226 lung
[31] = test system: NCI-H23 lung
[32] = test system: NCI-H460 lung
[33] = test system: NCI-H522 lung
[34] = test system: NCI/ADR-RES ovarian
[35] = test system: OVCAR-3 ovarian
[36] = test system: OVCAR-4 ovarian
[37] = test system: OVCAR-5 ovarian
[38] = test system: OVCAR-8 ovarian
[39] = test system: PC-3 prostate
[40] = test system: RPMI-8226 leukemia
[41] = test system: RXF 393 renal
[42] = test system: SF-268 CNS
[43] = test system: SF-295 CNS
[44] = test system: SF-539 CNS
[45] = test system: SK-MEL-2 melanoma
[46] = test system: SK-MEL-28 melanoma
[47] = test system: SK-MEL-5 melanoma
[48] = test system: SK-OV-3 ovarian
[49] = test system: SN12C renal
[50] = test system: SNB-19 CNS
[51] = test system: SNB-75 CNS
[52] = test system: SR leukemia
[53] = test system: SW-620 colon
[54] = test system: T-47D breast
[55] = test system: TK-10 renal
[56] = test system: U251 CNS
[57] = test system: UACC-257 melanoma
[58] = test system: UACC-62 melanoma
[59] = test system: UO-31 renal

Structure (SMILES): COc1ccccc1-n1cc(C#N)c(N)c1C(=O)c1ccc(Cl)cc1Cl
- GI50 [1]: 7.12 µM
- TGI [1]: > 100 µM
- GI50 [2]: 72 µM
- TGI [2]: > 100 µM
- GI50 [3]: 7.39 µM
- TGI [3]: > 100 µM
- GI50 [4]: 7.79 µM
- TGI [4]: > 100 µM
- GI50 [5]: 3.41 µM
- TGI [5]: 58.5 µM
- GI50 [6]: 4.7 µM
- TGI [6]: 28.4 µM
- GI50 [7]: 4.68 µM
- TGI [7]: > 100 µM
- GI50 [8]: 5.7 µM
- TGI [8]: > 100 µM
- GI50 [9]: 9.73 µM
- TGI [9]: > 100 µM
- GI50 [10]: 8.24 µM
- TGI [10]: > 100 µM
- GI50 [11]: 12.4 µM
- TGI [11]: > 100 µM
- GI50 [12]: 4.02 µM
- TGI [12]: 28.7 µM
- GI50 [13]: 3.62 µM
- TGI [13]: 64.9 µM
- GI50 [14]: 3.15 µM
- TGI [14]: 70.4 µM
- GI50 [15]: 6.4 µM
- TGI [15]: 87.7 µM
- GI50 [16]: 16.8 µM
- TGI [16]: > 100 µM
- GI50 [17]: 3.02 µM
- TGI [17]: 58.1 µM
- GI50 [18]: 3.18 µM
- TGI [18]: > 100 µM
- GI50 [19]: 7.49 µM
- TGI [19]: > 100 µM
- GI50 [20]: 3.63 µM
- TGI [20]: > 100 µM
- GI50 [21]: 3.9 µM
- TGI [21]: > 100 µM
- GI50 [22]: 4.89 µM
- TGI [22]: > 100 µM
- GI50 [23]: 3.27 µM
- TGI [23]: > 100 µM
- GI50 [24]: 4.2 µM
- TGI [24]: > 100 µM
- GI50 [25]: 3.94 µM
- TGI [25]: 35.2 µM
- GI50 [26]: 9.05 µM
- TGI [26]: > 100 µM
- GI50 [27]: 1.92 µM
- TGI [27]: 4.41 µM
- GI50 [28]: 2.48 µM
- TGI [28]: 8.82 µM
- GI50 [29]: 4.84 µM
- TGI [29]: > 100 µM
- GI50 [30]: 5.79 µM
- TGI [30]: 64.3 µM
- GI50 [31]: 7.55 µM
- TGI [31]: > 100 µM
- GI50 [32]: 4.66 µM
- TGI [32]: > 100 µM
- GI50 [33]: 1.87 µM
- TGI [33]: 5.12 µM
- GI50 [34]: 3.55 µM
- TGI [34]: 64.2 µM
- GI50 [35]: 3.86 µM
- TGI [35]: 18.6 µM
- GI50 [36]: 8.96 µM
- TGI [36]: > 100 µM
- GI50 [37]: 9.71 µM
- TGI [37]: > 100 µM
- GI50 [38]: 21 µM
- TGI [38]: > 100 µM
- GI50 [39]: 5.6 µM
- TGI [39]: > 100 µM
- GI50 [40]: 9.39 µM
- TGI [40]: > 100 µM
- GI50 [41]: 4.37 µM
- TGI [41]: 39.3 µM
- GI50 [42]: 9.77 µM
- TGI [42]: > 100 µM
- GI50 [43]: 3.72 µM
- TGI [43]: 27 µM
- GI50 [44]: 3.37 µM
- TGI [44]: 11.5 µM
- GI50 [45]: 2.69 µM
- TGI [45]: 7.5 µM
- GI50 [46]: 7.58 µM
- TGI [46]: > 100 µM
- GI50 [47]: 4.84 µM
- TGI [47]: > 100 µM
- GI50 [48]: 3.36 µM
- TGI [48]: 28.3 µM
- GI50 [49]: 5.24 µM
- TGI [49]: > 100 µM
- GI50 [50]: 6.6 µM
- TGI [50]: 61.6 µM
- GI50 [51]: 2.61 µM
- TGI [51]: 8.54 µM
- GI50 [52]: 3.53 µM
- TGI [52]: > 100 µM
- GI50 [53]: 3.98 µM
- TGI [53]: > 100 µM
- GI50 [54]: 4.53 µM
- TGI [54]: > 100 µM
- GI50 [55]: 52.9 µM
- TGI [55]: > 100 µM
- GI50 [56]: 4.45 µM
- TGI [56]: > 100 µM
- GI50 [57]: 6.31 µM
- TGI [57]: > 100 µM
- GI50 [58]: 3.67 µM
- TGI [58]: 42.8 µM
- GI50 [59]: 7.87 µM
- TGI [59]: > 100 µM

Structure (SMILES): Nc1cc(-c2c[nH]c3ccc(Br)cc23)nc2cc(-c3c[nH]c4ccccc34)nn12
- GI50 [1]: 1.63 µM
- TGI [1]: 3.54 µM
- GI50 [2]: 2.42 µM
- TGI [2]: 7.74 µM
- GI50 [3]: 2.91 µM
- TGI [3]: 11.5 µM
- GI50 [4]: 2.77 µM
- TGI [4]: 9.2 µM
- GI50 [5]: 9.32 µM
- TGI [5]: 21.8 µM
- GI50 [6]: 2.2 µM
- TGI [6]: 7.33 µM
- GI50 [7]: 3.05 µM
- TGI [7]: 13.2 µM
- GI50 [8]: 1.73 µM
- TGI [8]: 3.33 µM
- GI50 [9]: 3.88 µM
- TGI [9]: 14.4 µM
- GI50 [10]: 2.92 µM
- TGI [10]: 10.9 µM
- GI50 [11]: 1.85 µM
- TGI [11]: 3.61 µM
- GI50 [12]: 1.77 µM
- TGI [12]: 3.39 µM
- GI50 [13]: 1.74 µM
- TGI [13]: 3.62 µM
- GI50 [14]: 2.84 µM
- TGI [14]: 12.7 µM
- GI50 [15]: 3.52 µM
- TGI [15]: 12.2 µM
- GI50 [16]: 2.06 µM
- TGI [16]: 6.08 µM
- GI50 [17]: 3.11 µM
- TGI [17]: 9.62 µM
- GI50 [18]: 1.98 µM
- TGI [18]: 4.08 µM
- GI50 [19]: 3.55 µM
- TGI [19]: 14.6 µM
- GI50 [21]: 2.21 µM
- TGI [21]: 5.31 µM
- GI50 [22]: 1.69 µM
- TGI [22]: 3.07 µM
- GI50 [23]: 2.09 µM
- TGI [23]: 5.05 µM
- GI50 [24]: 1.91 µM
- TGI [24]: 3.64 µM
- GI50 [25]: 2.05 µM
- TGI [25]: 5 µM
- GI50 [26]: 1.9 µM
- TGI [26]: 3.63 µM
- GI50 [27]: 2.95 µM
- TGI [27]: 9.98 µM
- GI50 [28]: 1.75 µM
- TGI [28]: 4.13 µM
- GI50 [29]: 2.4 µM
- TGI [29]: 6.72 µM
- GI50 [30]: 6.13 µM
- TGI [30]: 41.4 µM
- GI50 [31]: 2.36 µM
- TGI [31]: 6.64 µM
- GI50 [33]: 1.68 µM
- TGI [33]: 3.51 µM
- GI50 [34]: 3.33 µM
- TGI [34]: 13.3 µM
- GI50 [35]: 3.44 µM
- TGI [35]: 14 µM
- GI50 [36]: 3.97 µM
- TGI [36]: 19 µM
- GI50 [37]: 2.08 µM
- TGI [37]: 5.36 µM
- GI50 [38]: 4.06 µM
- TGI [38]: 18.1 µM
- GI50 [39]: 2.57 µM
- TGI [39]: 8.4 µM
- GI50 [40]: 2.88 µM
- TGI [40]: 9.09 µM
- GI50 [41]: 2.66 µM
- TGI [41]: 7.87 µM
- GI50 [42]: 3.72 µM
- TGI [42]: 18.5 µM
- GI50 [43]: 1.9 µM
- TGI [43]: 4.01 µM
- GI50 [44]: 1.74 µM
- TGI [44]: 3.38 µM
- GI50 [45]: 2.44 µM
- TGI [45]: 7.13 µM
- GI50 [46]: 2.23 µM
- TGI [46]: 5.71 µM
- GI50 [47]: 2.7 µM
- TGI [47]: 7.62 µM
- GI50 [48]: 7.75 µM
- TGI [48]: 21 µM
- GI50 [49]: 4.03 µM
- TGI [49]: 16.4 µM
- GI50 [50]: 3.67 µM
- TGI [50]: 14.1 µM
- GI50 [51]: 2.17 µM
- TGI [51]: 11.3 µM
- GI50 [52]: 2.23 µM
- TGI [52]: > 100 µM
- GI50 [53]: 1.87 µM
- TGI [53]: 3.7 µM
- GI50 [54]: 3.15 µM
- TGI [54]: 20.3 µM
- GI50 [55]: 2.56 µM
- TGI [55]: 12 µM
- GI50 [56]: 2 µM
- TGI [56]: 4.57 µM
- GI50 [57]: 3.86 µM
- TGI [57]: 15.1 µM
- GI50 [58]: 1.88 µM
- TGI [58]: 4.35 µM
- GI50 [59]: 2.74 µM
- TGI [59]: 11.8 µM
